The values that follow are results of earlier work, collected in US20220362242A1, “METHODS AND COMPOSITIONS FOR TREATING MOVEMENT DISORDERS” (Edgewise Therapeutics, Inc., priority 2018, published 2022).

The subject of this data set is embryos from zebrafish model of DMD. The note with it: control vs BTS treated muscles, FIG. 2.

With `Cc1ccc(S(=O)(=O)NCc2ccccc2)cc1` [BTS, N-benzyl-p-tolyl-sulfonamide], the “protection of muscles from pathological muscle derangement” value is listed as “protect muscles from pathological muscle derangement”.
